The assay is described as follows: Inhibition of recombinant N-terminal His6-tagged Mycobacterium tuberculosis H37Rv IMPDH expressed in Escherichia coli BL21 (DE3) cells assessed as reduction of NAD+ to NADH using IMP and NAD+ as substrate treated 1 min after substrate incubation with enzyme by UV-visible spectrophotometry.

A word on the IC50: it is the concentration that inhibits the measured activity by half.

`O=C(NCCNS(=O)(=O)c1cccc2cnccc12)C1CCCCC1`: the 50% inhibitory concentration (IC50) is 500 to 1500 nM.

These data come from ChEMBL document CHEMBL4393693, “Synthesis and Structure-Activity relationship of 1-(5-isoquinolinesulfonyl)piperazine analogues as inhibitors of Mycobacterium tuberculosis IMPDH” (Eur J Med Chem, 2019).
